Data on four compounds can be found in US10725001B2, “Liquid crystal composition, pH sensing device using the same, and pH sensing device kit using the same” (Tamkang University, priority 2016, dated 2020).

The structures appear in SMILES notation.

The data set can be described thus: Acid dissociation constants (pKa) of the dopant compounds. The format is physicochemical. The settings on record: read-out: acid dissociation constant (pKa).
Take `CCCCCCc1ccc(-c2ccc(C(=O)O)cc2)cc1` [Formula (I-1)]: the pKa is 7.68.

Consider `CCCCCCCCOc1ccc(-c2ccc(C(=O)O)cc2)cc1` [Formula (I-2)], for which the pKa was found to be 7.66.

Take `CCCCCCCCCCOc1ccc(-c2ccc(C(=O)O)cc2)cc1` [Formula (I-3)]: the pKa stood at 9.77.

Consider `CCCCCCCCCCCCOc1ccc(-c2ccc(C(=O)O)cc2)cc1` [Formula (I-4)], for which the pKa came to 8.74.
